From DBAASP
In brackets after ≈: the same amount, converted by molar mass. Several values for one entry are separate records, joined by “and”; a condition that tells them apart may be missing. Identical values can stand only once. One block for each compound: values may come before it.

Experiments:
Test in all cases: ≥ marks a high value that may be exact or a test limit, other limits are often not marked, values filed in µg/mL are converted to µM
[1] = tested on: Klebsiella pneumoniae ATCC 43816
[2] = tested on: Enterococcus faecalis NCTC 12697
[3] = tested on: Staphylococcus aureus NCTC 10788
[4] = tested on: Staphylococcus aureus NCTC 12493
[5] = tested on: Candida albicans NCYC 1467
[6] = tested on: Escherichia coli NCTC 10418
[7] = tested on: Pseudomonas aeruginosa ATCC 27853
[8] = tested on: Staphylococcus aureus BCRC 10780
Escherichia coli W160-37 = tested on: Escherichia coli W160-37
[9] = tested on: Staphylococcus aureus ATCC 8530
[10] = tested on: Staphylococcus aureus ATCC 25923
[11] = tested on: Pseudomonas aeruginosa ATCC 9027
[12] = tested on: Escherichia coli ATCC 35218
[13] = tested on: Bacillus cereus ATCC 11778
Escherichia coli BW25113 = tested on: Escherichia coli BW25113
Escherichia coli 1005 = tested on: Escherichia coli 1005
[14] = tested on: Staphylococcus aureus ATCC 29213
[15] = tested on: Salmonella enterica subsp. enterica serovar Typhimurium ATCC 14028
[16] = tested on: Candida krusei CGMCC 2.1857
[17] = tested on: Staphylococcus epidermidis ATCC 12228
[18] = tested on: Candida parapsilosis CGMCC 2.3989
[19] = tested on: Salmonella enterica subsp. enterica serovar Pullorum ATCC 7913
[20] = tested on: Candida tropicalis CGMCC 2.1975
[21] = tested on: Staphylococcus aureus ATCC 43300
Candida albicans = tested on: Candida albicans
[22] = tested on: Escherichia coli ATCC 25922
[23] = tested on: Bacillus subtilis ATCC 6633
[24] = tested on: Pseudomonas aeruginosa ATCC BAA-427

Compound: CC[C@H](C)[C@H](NC(=O)[C@H](C)NC(=O)[C@H](C)NC(=O)[C@@H]1CCCN1C(=O)[C@@H](NC(=O)[C@H](CC(C)C)NC(=O)[C@H](CO)NC(=O)[C@H](CC(C)C)NC(=O)[C@@H](N)Cc1ccccc1)[C@@H](C)CC)C(=O)N[C@@H](CO)C(=O)N[C@@H](C)C(=O)N[C@H](C(=O)N[C@@H](CO)C(=O)N[C@@H](C)C(=O)N[C@@H](CC(C)C)C(=O)N[C@@H](C)C(=O)N[C@@H](CC(N)=O)C(=O)N[C@@H](Cc1cnc[nH]1)C(=O)N[C@@H](Cc1ccccc1)C(N)=O)C(C)C [FLSLIPAAISAVSALANHF]
MIC [1]: ≥ 512 µM
MIC [2]: ≥ 264 µM
MIC [3]: ≥ 33 µM
MIC [4]: ≥ 33 µM
MIC [5]: ≥ 132 µM
MIC [6]: ≥ 264 µM
MIC [7]: > 512 µM

Compound: CC[C@H](C)[C@H](NC(=O)[C@H](CCCCN)NC(=O)[C@@H]1CCCN1C(=O)[C@@H](NC(=O)[C@H](CC(C)C)NC(=O)[C@H](C)NC(=O)[C@H](Cc1ccccc1)NC(=O)[C@H](Cc1ccccc1)NC(=O)CNC(C)=O)[C@@H](C)CC)C(N)=O [GFFALIPKI]
MIC [8]: ≥ 99.5 µM

Compound: CC[C@H](C)[C@@H]1NC(=O)[C@H](C)NC(=O)[C@@H](NC(=O)[C@H](Cc2ccccc2)NC(=O)[C@@H](NC(=O)[C@H](CCCCN)NC(=O)[C@@H]2CCCN2C(=O)[C@H](CC(C)C)NC(=O)[C@H](Cc2ccccc2)NC(=O)[C@H](CCCCN)NC(=O)[C@@H](N)CCCCN)[C@@H](C)CC)CSSC[C@@H](C(=O)O)NC(=O)[C@H](CCCCN)NC(=O)[C@H](CCCCN)NC(=O)[C@H]([C@@H](C)O)NC1=O [KKFLPKIFCAITKKC]
MIC [1]: ≥ 128 µM
MIC [2]: ≥ 512 µM
MIC [3]: 8 µM (≈ 14.1 µg/mL)
MIC [4]: 16 µM (≈ 28.3 µg/mL)
MIC [5]: ≥ 32 µM
MIC [6]: 16 µM (≈ 28.3 µg/mL)
MIC [7]: 256 µM (≈ 452 µg/mL)

Compound: CC[C@H](C)[C@H](NC(=O)[C@H](CC(C)C)NC(=O)[C@H](CCC(N)=O)NC(=O)[C@H](CCCCN)NC(C)=O)C(=O)N[C@@H](CCCN=C(N)N)C(=O)N[C@@H](Cc1ccccc1)C(=O)N[C@@H](CC(C)C)C(=O)N[C@@H](CCCCN)C(=O)N[C@@H](CCCN=C(N)N)C(=O)N[C@@H](CC(C)C)C(=O)N[C@@H](CC(=O)O)C(=O)N[C@@H](CCCN=C(N)N)C(=O)N[C@@H](CC(N)=O)C(=O)N[C@@H](CC(C)C)C(=O)N[C@@H](Cc1c[nH]c2ccccc12)C(=O)NCC(=O)N[C@@H](CC(C)C)C(=O)N[C@@H](C)C(N)=O [KQLIRFLKRLDRNLWGLA]
MIC (Escherichia coli W160-37): 4.5 µM (≈ 10.3 µg/mL)
MIC [9]: 11 µM (≈ 25.1 µg/mL)

Compound: CC(C)C[C@H](NC(=O)[C@@H](NC(=O)[C@H](CCCCN)NC(=O)[C@H](CCCCN)NC(=O)[C@@H](N)CC(C)C)C(C)C)C(=O)N[C@@H](CCCCN)C(=O)N[C@@H](C)C(=O)N[C@@H](C)C(=O)N[C@@H](C)C(N)=O [LKKVLKAAA]
MIC [10]: > 50 µM
MIC [11]: > 50 µM
MIC [12]: ≥ 50 µM
MIC [13]: ≥ 50 µM

Compound: CC[C@H](C)[C@H](NC(=O)[C@@H]1CCCN1C(=O)[C@H](Cc1ccccc1)NC(=O)[C@H](CCCN=C(N)N)NC(=O)[C@H](Cc1ccccc1)NC(=O)[C@@H](N)CCCN=C(N)N)C(=O)N[C@@H](CCCN=C(N)N)C(=O)N[C@@H](CCCN=C(N)N)C(=O)N1CCC[C@H]1C(=O)N1CCC[C@H]1C(=O)N[C@H](C(=O)N[C@@H](CCCN=C(N)N)C(=O)N1CCC[C@H]1C(=O)N1CCC[C@H]1C(=O)N[C@@H](Cc1ccccc1)C(=O)N[C@@H](Cc1ccc(O)cc1)C(=O)N1CCC[C@H]1C(=O)O)[C@@H](C)CC [RFRFPIRRPPIRPPFYP]
MIC (Escherichia coli BW25113): 8 µM (≈ 17.7 µg/mL)

Compound: CC[C@H](C)[C@H](NC(=O)[C@H](CCCN=C(N)N)NC(=O)[C@@H](NC(=O)[C@@H](NC(=O)[C@@H](NC(=O)[C@H](CCCN=C(N)N)NC(=O)[C@@H](NC(=O)[C@@H](N)CCCN=C(N)N)[C@@H](C)CC)[C@@H](C)CC)[C@@H](C)CC)[C@@H](C)CC)C(=O)N[C@@H](CCCN=C(N)N)C(N)=O [RIRIIIRIR]
MIC (Escherichia coli 1005): 4 µM (≈ 4.83 µg/mL)
MIC [14]: 4 µM (≈ 4.83 µg/mL)
MIC [15]: 4 µM (≈ 4.83 µg/mL)
MIC [16]: 2 µM (≈ 2.42 µg/mL)
MIC [17]: 4 µM (≈ 4.83 µg/mL)
MIC [18]: 8 µM (≈ 9.66 µg/mL)
MIC [19]: 4 µM (≈ 4.83 µg/mL)
MIC [10]: 4 µM (≈ 4.83 µg/mL)
MIC [20]: 2 µM (≈ 2.42 µg/mL)
MIC [21]: 4 µM (≈ 4.83 µg/mL)
MIC (Candida albicans): 2 µM (≈ 2.42 µg/mL)

The remaining lines, values ahead:

MIC (Escherichia coli 1005): 4 µM (≈ 4.83 µg/mL)
MIC [14]: 8 µM (≈ 9.66 µg/mL)
MIC [15]: 4 µM (≈ 4.83 µg/mL)
MIC [16]: 8 µM (≈ 9.66 µg/mL)
MIC [17]: 4 µM (≈ 4.83 µg/mL)
MIC [18]: ≥ 64 µM
MIC [19]: 4 µM (≈ 4.83 µg/mL)
MIC [10]: 8 µM (≈ 9.66 µg/mL)
MIC [22]: 4 µM and 8 µM
MIC [20]: 2 µM (≈ 2.42 µg/mL)
MIC [21]: 4 µM (≈ 4.83 µg/mL)
MIC (Candida albicans): 8 µM (≈ 9.66 µg/mL)
Compound: CC(C)C[C@H](NC(=O)[C@H](CCCN=C(N)N)NC(=O)[C@H](CC(C)C)NC(=O)[C@H](CC(C)C)NC(=O)[C@H](CC(C)C)NC(=O)[C@H](CCCN=C(N)N)NC(=O)[C@H](CC(C)C)NC(=O)[C@@H](N)CCCN=C(N)N)C(=O)N[C@@H](CCCN=C(N)N)C(N)=O [RLRLLLRLR]

MIC (Escherichia coli 1005): 4 µM (≈ 6.76 µg/mL)
MIC [14]: 4 µM (≈ 6.76 µg/mL)
MIC [15]: 4 µM (≈ 6.76 µg/mL)
MIC [16]: 2 µM (≈ 3.38 µg/mL)
MIC [17]: 4 µM (≈ 6.76 µg/mL)
MIC [18]: 16 µM (≈ 27 µg/mL)
MIC [19]: 2 µM (≈ 3.38 µg/mL)
MIC [10]: 8 µM (≈ 13.5 µg/mL)
MIC [22]: 4 µM and > 2 µM
MIC [20]: 1 µM (≈ 1.69 µg/mL)
MIC [21]: 4 µM (≈ 6.76 µg/mL)
MIC (Candida albicans): 2.83 µM (≈ 4.78 µg/mL)
Compound: NC(=O)[C@H](CCCN=C(N)N)NC(=O)[C@H](CCCN=C(N)N)NC(=O)[C@H](Cc1ccccc1)NC(=O)[C@H](CCCN=C(N)N)NC(=O)[C@H](Cc1ccccc1)NC(=O)[C@H](Cc1ccccc1)NC(=O)[C@H](Cc1ccccc1)NC(=O)[C@H](CCCN=C(N)N)NC(=O)[C@H](Cc1ccccc1)NC(=O)[C@H](CCCN=C(N)N)NC(=O)[C@@H](N)CCCN=C(N)N [RRFRFFFRFRR]

MIC [10]: 5 µM (≈ 9.48 µg/mL)
MIC [22]: 6 µM (≈ 11.4 µg/mL)
MIC [23]: 5 µM (≈ 9.48 µg/mL)
MIC [24]: 6 µM (≈ 11.4 µg/mL)
Compound: CC(C)C[C@H](NC(=O)[C@H](CC(=O)O)NC(=O)[C@H](CC(C)C)NC(=O)[C@H](CCCCN)NC(=O)[C@H](CC(C)C)NC(=O)[C@H](CC(=O)O)NC(=O)[C@H](CC(C)C)NC(=O)[C@H](CCCCN)NC(=O)[C@H](CC(C)C)NC(=O)[C@H](CC(=O)O)NC(=O)[C@H](CC(C)C)NC(=O)[C@H](CCCCN)NC(=O)[C@H](CCCN=C(N)N)NC(=O)[C@H](CCCN=C(N)N)NC(=O)[C@@H](N)CCCN=C(N)N)C(=O)O [RRRKLDLKLDLKLDL]

MIC (Escherichia coli BW25113): 8 µM (≈ 18.6 µg/mL)
Compound: CC[C@H](C)[C@H](NC(=O)[C@@H]1CCCN1C(=O)[C@H](CCCN=C(N)N)NC(=O)[C@H](CCCN=C(N)N)NC(=O)[C@H](Cc1c[nH]c2ccccc12)NC(=O)[C@@H](N)CCCN=C(N)N)C(=O)N[C@@H](CCCN=C(N)N)C(=O)N[C@@H](CCCN=C(N)N)C(=O)N1CCC[C@H]1C(=O)N1CCC[C@H]1C(=O)N[C@H](C(=O)N[C@@H](CCCN=C(N)N)C(=O)N1CCC[C@H]1C(=O)N1CCC[C@H]1C(=O)N[C@@H](Cc1ccccc1)C(=O)N[C@@H](Cc1ccc(O)cc1)C(=O)N[C@@H](CCCN=C(N)N)C(=O)O)[C@@H](C)CC [RWRRPIRRPPIRPPFYR]
